Data on one molecule can be found in article PMC12756740, “A GH42 β‑Galactosidase from the Human Isolate Bifidobacterium breve DSM 20213: Biochemical and Transgalactosylation Properties Reveal the Potential for Galacto-oligosaccharides Synthesis” (ACS Omega, 2025).

The assay has as its target T1, Bbreβgal-III (Bifidobacterium breve, UniProt D4BMY8).
T1 construct: gene BIFBRE_03435; pET21a(+) NdeI/NotI, His-tagged, E. coli BL21 Star (DE3), IMAC purified
Description: o-nitrophenol release at […] nm, nonlinear fit with substrate inhibition model. In kind it is biochemical. To be noted: substrate inhibition constant; 50 mM sodium phosphate pH 6.5, 30 °C.

T1 sequence (D4BMY8 1-691): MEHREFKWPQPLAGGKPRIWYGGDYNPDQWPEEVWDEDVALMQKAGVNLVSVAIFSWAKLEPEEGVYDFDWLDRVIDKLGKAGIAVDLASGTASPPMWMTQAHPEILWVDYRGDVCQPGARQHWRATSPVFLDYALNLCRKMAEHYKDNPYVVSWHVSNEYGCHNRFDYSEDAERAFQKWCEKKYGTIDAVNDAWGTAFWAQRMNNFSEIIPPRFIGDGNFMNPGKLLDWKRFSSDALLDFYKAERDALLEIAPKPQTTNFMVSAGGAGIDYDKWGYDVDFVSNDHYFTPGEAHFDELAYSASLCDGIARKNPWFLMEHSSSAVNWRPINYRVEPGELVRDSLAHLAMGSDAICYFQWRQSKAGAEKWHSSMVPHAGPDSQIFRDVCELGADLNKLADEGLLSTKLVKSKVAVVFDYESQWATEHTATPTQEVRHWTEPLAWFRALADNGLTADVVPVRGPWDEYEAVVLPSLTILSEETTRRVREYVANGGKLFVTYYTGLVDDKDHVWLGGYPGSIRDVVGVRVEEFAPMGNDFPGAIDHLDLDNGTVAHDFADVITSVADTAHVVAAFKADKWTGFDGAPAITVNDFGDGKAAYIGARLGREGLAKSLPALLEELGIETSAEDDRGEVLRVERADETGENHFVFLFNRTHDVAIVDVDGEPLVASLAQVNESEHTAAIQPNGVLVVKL

In the case of `O=[N+]([O-])c1ccccc1O[C@@H]1O[C@H](CO)[C@H](O)[C@H](O)[C@H]1O` [o-nitrophenyl-β-D-galactopyranoside], the “k i,S” value came out at 13.84 ± 1.57 mM.
